Data reported in PubChem BioAssay AID1918933 (Molecular Pharmacology Branch, DTP, NCI, 2023).

Tested on: 186277-243-T-J2-PDC complex spheroid viability
Assay: Anticancer human tumor 186277-243-T-J2-PDC patient-derived colon adenocarcinoma cell line growth inhibition
Details: for IC50: curve of first compound; for viability, T/C: stronger effect = lower value
Outline: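 Multicellular complex spheroids of tumor cells with human endothelial cells (HUVEC) and mesenchymal stem cells; the LSD1 inhibitor iadademstat was combined with standard-of-care or investigational agents. Top concentration at or near clinical Cmax, half-log dilutions; final DMSO ≤0.25%.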

[1] = second compound 0.1 µM, first compound 0.000316 µM
[2] = second compound 0.1 µM, first compound 0.001 µM
[3] = second compound 0.1 µM, first compound 0.00316 µM
[4] = second compound 0.1 µM, first compound 0.01 µM
[5] = second compound 0.1 µM, first compound 0.0316 µM
[6] = second compound 0.1 µM, first compound 0.1 µM
[7] = second compound 0.316 µM, first compound 0.000316 µM
[8] = second compound 0.316 µM, first compound 0.001 µM
[9] = second compound 0.316 µM, first compound 0.00316 µM
[10] = second compound 0.316 µM, first compound 0.01 µM
[11] = second compound 0.316 µM, first compound 0.0316 µM
[12] = second compound 0.316 µM, first compound 0.1 µM
[13] = second compound 1 µM, first compound 0.000316 µM
[14] = second compound 1 µM, first compound 0.001 µM
[15] = second compound 1 µM, first compound 0.00316 µM
[16] = second compound 1 µM, first compound 0.01 µM
[17] = second compound 1 µM, first compound 0.0316 µM
[18] = second compound 1 µM, first compound 0.1 µM
[19] = second compound 3.16 µM, first compound 0.000316 µM
[20] = second compound 3.16 µM, first compound 0.001 µM
[21] = second compound 3.16 µM, first compound 0.00316 µM
[22] = second compound 3.16 µM, first compound 0.01 µM
[23] = second compound 3.16 µM, first compound 0.0316 µM
[24] = second compound 3.16 µM, first compound 0.1 µM
[25] = second compound 10 µM, first compound 0.000316 µM
[26] = second compound 10 µM, first compound 0.001 µM
[27] = second compound 10 µM, first compound 0.00316 µM
[28] = second compound 10 µM, first compound 0.01 µM
[29] = second compound 10 µM, first compound 0.0316 µM
[30] = second compound 10 µM, first compound 0.1 µM
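Further: 7 day exposure to compounds.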
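Wherever viability, T/C is given: 100% = DMSO vehicle control viability.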

## CC(C)CC(NC(=O)C(Cc1ccccc1)NC(=O)c1cnccn1)B(O)O (stereo not given) + NC1CC1c1ccc(-c2cccc(O)c2)cc1
Second compound 0.1 µM
  IC50: 0.601 nM
Second compound 0.316 µM
  IC50: 0.547 nM
Second compound 1 µM
  IC50: 0.548 nM
Second compound 3.16 µM
  IC50: 0.57 nM
Second compound 10 µM
  IC50: 0.557 nM
[1]
  viability, T/C: 108%
[2]
  viability, T/C: 3.98%
[3]
  viability, T/C: 0.06%
[4]
  viability, T/C: 0.02%
[5]
  viability, T/C: 0.02%
[6]
  viability, T/C: 0.12%
[7]
  viability, T/C: 94.1%
[8]
  viability, T/C: 1.53%
[9]
  viability, T/C: 0.04%
[10]
  viability, T/C: 0.01%
[11]
  viability, T/C: 0.37%
[12]
  viability, T/C: 0.1%
[13]
  viability, T/C: 94.3%
[14]
  viability, T/C: 1.48%
[15]
  viability, T/C: 0.05%
[16]
  viability, T/C: 0.02%
[17]
  viability, T/C: 0.07%
[18]
  viability, T/C: 0.1%
[19]
  viability, T/C: 101%
[20]
  viability, T/C: 1.66%
[21]
  viability, T/C: 0.06%
[22]
  viability, T/C: 0.02%
[23]
  viability, T/C: 0.64%
[24]
  viability, T/C: 0.74%
[25]
  viability, T/C: 97.9%
[26]
  viability, T/C: 0.65%
[27]
  viability, T/C: 0.13%
[28]
  viability, T/C: 0.2%
[29]
  viability, T/C: 0.13%
[30]
  viability, T/C: 0.89%

## CC(C)CC(NC(=O)CNC(=O)c1cc(Cl)ccc1Cl)B1OC(=O)CC(CC(=O)O)(C(=O)O)O1 (stereo not given) + NC1CC1c1ccc(-c2cccc(O)c2)cc1
Second compound 0.1 µM
  IC50: 10.5 nM
Second compound 0.316 µM
  IC50: 11 nM
Second compound 1 µM
  IC50: 10.7 nM
Second compound 3.16 µM
  IC50: 10.6 nM
Second compound 10 µM
  IC50: 7.75 nM
[1]
  viability, T/C: 110%
[2]
  viability, T/C: 95.8%
[3]
  viability, T/C: 111%
[4]
  viability, T/C: 51.9%
[5]
  viability, T/C: 6.34%
[6]
  viability, T/C: 0.22%
[7]
  viability, T/C: 110%
[8]
  viability, T/C: 111%
[9]
  viability, T/C: 111%
[10]
  viability, T/C: 54.3%
[11]
  viability, T/C: 1.86%
[12]
  viability, T/C: 0.17%
[13]
  viability, T/C: 110%
[14]
  viability, T/C: 111%
[15]
  viability, T/C: 116%
[16]
  viability, T/C: 53.2%
[17]
  viability, T/C: 1.62%
[18]
  viability, T/C: 0.2%
[19]
  viability, T/C: 111%
[20]
  viability, T/C: 117%
[21]
  viability, T/C: 110%
[22]
  viability, T/C: 52.6%
[23]
  viability, T/C: 1.26%
[24]
  viability, T/C: 0.43%
[25]
  viability, T/C: 117%
[26]
  viability, T/C: 114%
[27]
  viability, T/C: 100%
[28]
  viability, T/C: 36.1%
[29]
  viability, T/C: 0.83%
[30]
  viability, T/C: 0.22%

## COc1cc(Nc2ncc3c(n2)-c2ccc(Cl)cc2C(c2c(F)cccc2OC)=NC3)ccc1C(=O)O + NC1CC1c1ccc(-c2cccc(O)c2)cc1
Second compound 0.1 µM
  IC50: > 1000 nM
Second compound 0.316 µM
  IC50: > 1000 nM
Second compound 1 µM
  IC50: > 1000 nM
Second compound 3.16 µM
  IC50: > 1000 nM
Second compound 10 µM
  IC50: > 1000 nM
[3]
  viability, T/C: 128%
[4]
  viability, T/C: 115%
[5]
  viability, T/C: 116%
[6]
  viability, T/C: 107%
Second compound 0.1 µM, first compound 0.316 µM
  viability, T/C: 124%
Second compound 0.1 µM, first compound 1 µM
  viability, T/C: 111%
[9]
  viability, T/C: 133%
[10]
  viability, T/C: 125%
[11]
  viability, T/C: 119%
[12]
  viability, T/C: 108%
Second compound 0.316 µM, first compound 0.316 µM
  viability, T/C: 124%
Second compound 0.316 µM, first compound 1 µM
  viability, T/C: 109%
[15]
  viability, T/C: 140%
[16]
  viability, T/C: 132%
[17]
  viability, T/C: 130%
[18]
  viability, T/C: 117%
Second compound 1 µM, first compound 0.316 µM
  viability, T/C: 131%
Second compound 1 µM, first compound 1 µM
  viability, T/C: 114%
[21]
  viability, T/C: 155%
[22]
  viability, T/C: 143%
[23]
  viability, T/C: 143%
[24]
  viability, T/C: 126%
Second compound 3.16 µM, first compound 0.316 µM
  viability, T/C: 128%
Second compound 3.16 µM, first compound 1 µM
  viability, T/C: 111%
[27]
  viability, T/C: 137%
[28]
  viability, T/C: 139%
[29]
  viability, T/C: 130%
[30]
  viability, T/C: 123%
Second compound 10 µM, first compound 0.316 µM
  viability, T/C: 120%
Second compound 10 µM, first compound 1 µM
  viability, T/C: 89.8%

## O=C(C=Cc1cccc(S(=O)(=O)Nc2ccccc2)c1)NO + NC1CC1c1ccc(-c2cccc(O)c2)cc1
Second compound 0.1 µM
  IC50: 240 nM
Second compound 0.316 µM
  IC50: 237 nM
Second compound 1 µM
  IC50: 260 nM
Second compound 3.16 µM
  IC50: 268 nM
Second compound 10 µM
  IC50: 238 nM
Second compound 0.1 µM, first compound 0.00949 µM
  viability, T/C: 104%
Second compound 0.1 µM, first compound 0.03 µM
  viability, T/C: 103%
Second compound 0.1 µM, first compound 0.0949 µM
  viability, T/C: 94%
Second compound 0.1 µM, first compound 0.3 µM
  viability, T/C: 23.5%
Second compound 0.1 µM, first compound 0.949 µM
  viability, T/C: 3.89%
Second compound 0.1 µM, first compound 3 µM
  viability, T/C: 91.1%
Second compound 0.316 µM, first compound 0.00949 µM
  viability, T/C: 106%
Second compound 0.316 µM, first compound 0.03 µM
  viability, T/C: 113%
Second compound 0.316 µM, first compound 0.0949 µM
  viability, T/C: 90.8%
Second compound 0.316 µM, first compound 0.3 µM
  viability, T/C: 25.9%
Second compound 0.316 µM, first compound 0.949 µM
  viability, T/C: 3.14%
Second compound 0.316 µM, first compound 3 µM
  viability, T/C: 89.5%
Second compound 1 µM, first compound 0.00949 µM
  viability, T/C: 116%
Second compound 1 µM, first compound 0.03 µM
  viability, T/C: 101%
Second compound 1 µM, first compound 0.0949 µM
  viability, T/C: 109%
Second compound 1 µM, first compound 0.3 µM
  viability, T/C: 23.3%
Second compound 1 µM, first compound 0.949 µM
  viability, T/C: 3.06%
Second compound 1 µM, first compound 3 µM
  viability, T/C: 98.7%
Second compound 3.16 µM, first compound 0.00949 µM
  viability, T/C: 118%
Second compound 3.16 µM, first compound 0.03 µM
  viability, T/C: 106%
Second compound 3.16 µM, first compound 0.0949 µM
  viability, T/C: 111%
Second compound 3.16 µM, first compound 0.3 µM
  viability, T/C: 26%
Second compound 3.16 µM, first compound 0.949 µM
  viability, T/C: 3.1%
Second compound 3.16 µM, first compound 3 µM
  viability, T/C: 101%
Second compound 10 µM, first compound 0.00949 µM
  viability, T/C: 99.3%
Second compound 10 µM, first compound 0.03 µM
  viability, T/C: 96.8%
Second compound 10 µM, first compound 0.0949 µM
  viability, T/C: 87.5%
Second compound 10 µM, first compound 0.3 µM
  viability, T/C: 21.8%
Second compound 10 µM, first compound 0.949 µM
  viability, T/C: 1.11%
Second compound 10 µM, first compound 3 µM
  viability, T/C: 99%
